Test results published in article PMC7545998, “A snake toxin as a theranostic agent for the type 2 vasopressin receptor” (Theranostics, 2020).

Assays:
[1] = system: 156 other GPCRs (including V1aR, V1bR and OTR); conditions: at µM concentrations; cited from earlier work
Source text: Named mambaquaretin (MQ1), this peptide was isolated from mamba snake venom.

[2] = system: rat model of hyponatremia; test: Rat model of dDAVP-induced hyponatremia; assay type: in vivo
Procedure: Hyponatremia was induced in rats by continuous infusion of 10 ng/h of dDAVP and water gavage (Figure 2A). At day 0 (D0), the basal plasma sodium concentration was 145 ± 6 mM. […] In controls, plasma sodium decreased to 134 ± 1 mM and 125 ± 3 mM at D3 and D4, respectively. […] The concentration of 10 µg/kg increased plasma sodium by 12 mmol/l/24 h. This is considered as the highest acceptable correction rate in humans in order to avoid risk of osmotic demyelination. Rat weights were monitored during the experiment, each rat being its own reference.
Specific pathogen-free adult male Sprague-Dawley rats (body weight between 445 and 525 grams) were from Janvier laboratories (Le Genest St. Isle, 53941, Saint Berthevin Cedex, France) and acclimatized to the animal house conditions for 1 week. […] A stock […] solution of desmopressin (dDAVP) was prepared by dissolving 5 mg of drug in physiological saline. dDAVP was administered using subcutaneous ALZET osmotic mini-pumps (model 2002, DURECT Corporation, Cupertino, CA95014, USA) previously filled with a solution of dDAVP (pumping rate of 0.47±0.02 µL/h and mean fill volume of 233.6±4.7 µL). The dose of dDAVP (10 ng/h) was determined in preliminary experiments. Buprenorphine (Centravet, 03120 Lapalisse, France) was administered once a day at a dose of 0.02 mg/kg, s.c. from day 0 to day 3 in order to suppress post-operative pain. Water gavage (30 mL/kg) was performed 2 times per day (at 9 am and 4 pm) in the first 3 days following ALZET pump implantation, and at 9 am at day 4. Body weight was recorded every day in order to adjust for the volume of water to be administered. Rats had free access to standard rat chow, as well as water in their cages. […] On days 0, 2, 3 and 4, at 9 am, 400 µL of blood was collected from isoflurane- anesthetized rats from the tail vein with lithium heparinate (Sanofi-Aventis, Gentilly, France). Samples were centrifuged (4 °C, 2000 g, 5 min). Sodium was quantified by the Central Laboratory of the ENVT, Toulouse, France, on a VITROS 250/350/950/ 5, 1 FS, 4600 and integrated system VITROS 5600 (Ortho-Clinical Diagnostics, Buckinghamshire, United Kingdom). Multiple factor ANOVA followed by Tukey's test were used to test for significance. A P value < 0.05 was considered significant.

[3] = system: porcine kidney epithelial cells LLC-pk1; test: Confocal imaging of endogenous V2R in LLC-pk1 cells; assay type: cell-based; conditions: 3.4 µM, 30-min pre-incubation
Procedure: In cells endogenously expressing V2R, such as porcine kidney epithelial cells LLC-pk1, labeling of V2R with AFDye-488-MQ1 and Cy5.5-MQ1 (100 nM) was performed with either fresh or PFA-fixed cells (Figures 7A and B). […] In the pathophysiological context, three renal cancer cell lines (CAKI-2, ACHN and A498 [38]) known to express V2R were tested. […] The presence of V2R, at the cell membrane level, fluctuated as a function of cell density and the number of cell divisions, whatever the cell line used. […] To our knowledge, this is the first specific ligand labeling of V2R in non-permeabilized cancer cells.
Freshly dissociated CHO, LLC-PK1 or renal cancer cell lines expressing vasopressin receptors were seeded on 12-mm glass coverslips pre-coated with poly-ornithine, cultured for 48 h before incubation in DMEM, 0.2 mg/mL BSA, 25 mM HEPES, pH 7.4 for 1 h at 12°C or 30 min at 22 °C with fluorescent analogues in the absence or presence of non-fluorescent ligands (30-min pre-incubation). After 3 washes with cold PBS, the cells were finally fixed in 4% PFA overnight at 4 °C and mounted with Mowiol. The fluorescent cells were imaged using a Zeiss LSM510 Meta confocal microscope equipped with a ×63 (NA 1.4) oil immersion objective. For excitation, available laser rays were 488 and 633 nm and emission signals were collected in multitracking mode with appropriate band pass filters. […]

[4] = system: Sprague-Dawley rats; test: Diuresis and urine osmolality with daily i.p. injection of 3 nmol/kg for 4 days; assay type: in vivo, rat; conditions: daily i.p. 3 nmol/kg; for Diuresis Average / Excretion Average / Osmolarity Average: N=5
Procedure: We injected this dose daily for 4 days and measured urine volume and osmolality.
Sprague-Dawley rats are aged between 6 and 12 weeks, between 237 g and 545 g and were use up to 3 times. […] Urine was collected at various times, and centrifuged for 30 min at 20,800 g. Urine osmolality was determined with an osmometer (Knauer, Berlin, Germany). For the pharmacokinetic experiments, a catheter was implanted in the rat jugular vein five days before the experiment. Blood samples of 400 μl were taken at various times under heparin conditions. Blood was centrifuged at 2000 g for 5 min at 4 °C and plasma was frozen at -20 °C.

Substance: mambaquaretin [MQ1]
- affinity for 156 other GPCRs (including V1aR, V1bR and OTR) [1]: no affinity
- plasma sodium ([2]; 10 µg/kg ([…]) s.c. on days 2-4, D3): 145 ± 3 mM
- plasma sodium ([2]; 10 µg/kg ([…]) s.c. on days 2-4, D4): 148 ± 2 mM
- plasma sodium ([2]; 100 µg/kg (16 nmol/kg) s.c. on days 2-4, D3): 146 ± 2 mM
- plasma sodium ([2]; 100 µg/kg (16 nmol/kg) s.c. on days 2-4, D4): 154 ± 2 mM
- effect on labeling by AFDye-488-MQ1 and Cy5.5-MQ1 [3]: inhibited the labeling
- half-life of diuresis decrease ([4]; day 1): 1.6 h
- Diuresis Average ([4]; day 1, 24-h period): 6.3 mL/h/kg
- Excretion Average ([4]; day 1, 24-h period): 1919 µOsm/h/kg
- Osmolarity Average ([4]; day 1, 24-h period): 328 mOsm/kg H2O
- half-life of diuresis decrease ([4]; day 2): 1.3 h
- Diuresis Average ([4]; day 2, 24-h period): 5.9 mL/h/kg
- Excretion Average ([4]; day 2, 24-h period): 1820 µOsm/h/kg
- Osmolarity Average ([4]; day 2, 24-h period): 317 mOsm/kg H2O
- half-life of diuresis decrease ([4]; day 3): 1.3 h
- Diuresis Average ([4]; day 3, 24-h period): 6.00 mL/h/kg
- Excretion Average ([4]; day 3, 24-h period): 1805 µOsm/h/kg
- Osmolarity Average ([4]; day 3, 24-h period): 313 mOsm/kg H2O
- half-life of diuresis decrease ([4]; day 4): 1.6 h
- Diuresis Average ([4]; day 4, 24-h period): 5.7 mL/h/kg
- Excretion Average ([4]; day 4, 24-h period): 1940 µOsm/h/kg
- Osmolarity Average ([4]; day 4, 24-h period): 326 mOsm/kg H2O
